Test results taken from patent US11542293B2, “Sting modulator compounds, and methods of making and using” (Takeda Pharmaceutical Company Limited, priority 2017, dated 2023).
Where two headings read alike, the source gives them in different places.

Experiments:
[1] = system: THP1-Dual cells (ISG54 promoter Lucia luciferase reporter); assay: THP-1 Dual Lucia Reporter Gene Assay; format: cell-based, human; conditions: Lucia luciferase signal induction, 20 hours at 37° C., read-out: Cellular THP 1 EC50
Procedure: THP1-Dual™ cells (InvivoGen #thpd-nfis) were derived from the human THP-1 monocyte cell line by stable integration of the Lucia luciferase gene, a secreted luciferase reporter gene, under the control of an ISG54 (interferon-stimulated gene) minimal promoter in conjunction with five interferon (IFN)-stimulated response elements. […] The cell plates were dosed with 62.5 nL of the testing compounds, and then incubated at 37° C. for 20 hours. At the end of the incubation, 15 μL/well of the QUANTI-Luc™ (InvivoGen #rep-q1c1) were added, and luminescence was measured immediately using the LeadSeeker.
Compound concentration versus percent signal induction curves were fitted to generate EC50 values.

[2] = biological target: Human STING (residues 140-379, H232R) (Homo sapiens (Human), UniProt Q86WV6, H232R); assay: Human STING TR-FRET Assay; conditions: read-out: Enz-TR-Fret IC50, fluorescein labeled ligand 100 nM, STING protein 100 nM, 60 minutes at rt
Human STING (residues 140-379, H232R), sequence (Q86WV6 140-379 H232R): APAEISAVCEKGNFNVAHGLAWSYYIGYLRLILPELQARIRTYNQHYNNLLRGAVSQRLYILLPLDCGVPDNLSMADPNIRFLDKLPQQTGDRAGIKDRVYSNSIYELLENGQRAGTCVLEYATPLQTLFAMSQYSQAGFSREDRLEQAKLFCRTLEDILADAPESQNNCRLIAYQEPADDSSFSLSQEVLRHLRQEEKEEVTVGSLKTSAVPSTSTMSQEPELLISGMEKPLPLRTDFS
Procedure: The sequence was verified before recombinant protein expression using E. coli expression system.
For expression, STING expression vector was transformed into BL21(DE3) cells. The expression was induced by adding IPTG and expressing in 16° C. for 20 hours.
Biotinylation was confirmed by Mass Spectrometry analysis.
Then 2 uL STING assay buffer containing STING protein (100 nM final) was added and the mixture was incubated at rt for 60 minutes. The plates were then read on a BMG PheraStar Plus reader (LanthaScreen module).
For the assay method described above, test compound percent inhibition, at various concentrations, was calculated relative to untreated and DMSO only treated samples. Compound concentration versus percent inhibition curves were fitted to generate IC50 values.

For `Nc1nc2c(ncn2[C@@H]2O[C@@H]3COP(=O)(S)O[C@@H]4[C@@H](COP(=O)(S)O[C@@H]2[C@@H]3O)C[C@@H](Oc2ccncn2)[C@@H]4F)c(=O)[nH]1` (single isomer, unassigned) [Compound I-39a], the EC50 ([1]; Homo sapiens, THP1-Dual, 20 h) was 1000 to 10000 nM and the IC50 [2] was < 1000 nM.
With `Nc1nc2c(ncn2[C@@H]2O[C@@H]3COP(=O)(S)O[C@@H]4[C@@H](COP(=O)(S)O[C@@H]2[C@@H]3O)C[C@@H](Oc2ccncn2)[C@@H]4F)c(=O)[nH]1` (single isomer, unassigned) [Compound I-39b] the EC50 [1] was < 1000 nM and the IC50 [2] was < 1000 nM.
With `Nc1nc2c(ncn2[C@@H]2O[C@@H]3COP(=O)(O)O[C@@H]4[C@@H](COP(=O)(S)O[C@@H]2[C@@H]3O)C[C@@H](Nc2ncncn2)[C@@H]4F)c(=O)[nH]1` (single isomer, unassigned) [Compound I-42] the EC50 ([1]; Homo sapiens, THP1-Dual, 20 h) was 1000 to 10000 nM and the IC50 [2] was < 1000 nM.
For `Nc1nc2c(ncn2[C@@H]2O[C@@H]3COP(=O)(S)O[C@@H]4[C@@H](COP(=O)(O)O[C@@H]2[C@@H]3O)C[C@@H](Nc2ncncn2)[C@@H]4F)c(=O)[nH]1` (single isomer, unassigned) [Compound I-43], the EC50 ([1]; Homo sapiens, THP1-Dual, 20 h) was 1000 to 10000 nM.
`Nc1nc2c(ncn2[C@@H]2O[C@@H]3COP(=O)(S)O[C@@H]4[C@@H](COP(=O)(S)O[C@@H]2[C@@H]3O)C[C@@H](Nc2ncncn2)[C@@H]4F)c(=O)[nH]1` (single isomer, unassigned) [Compound I-45] was tested, and the EC50 ([1]; Homo sapiens, THP1-Dual, 20 h) was 1000 to 10000 nM and the IC50 [2] was < 1000 nM.
`Nc1nc2c(ncn2[C@@H]2O[C@@H]3COP(=O)(O)O[C@H]4C[C@H](Oc5ccncn5)C[C@@H]4COP(=O)(O)O[C@@H]2[C@@H]3O)c(=O)[nH]1` [Compound I-10, 2-amino-9-[(5R,7R,8R,12aR,14R,15aS,16R)-2,10,16-trihydroxy-2,10-dioxido-14-(pyrimidin-4-yloxy)decahydro-5,8-methanocyclopenta[1][1,3,6,9,11,2,10]pentaoxadiphosphacyclotetradecin-7-yl]-1,9-dihydro-6H-purin-6-one] was tested, and the EC50 ([1]; Homo sapiens, THP1-Dual, 20 h) was 1000 to 10000 nM and the IC50 [2] was < 1000 nM.
With `Nc1nc2c(ncn2[C@@H]2O[C@@H]3COP(=O)(S)O[C@H]4C[C@H](Oc5ccncn5)C[C@@H]4COP(=O)(O)O[C@@H]2[C@@H]3O)c(=O)[nH]1` (stereo partly drawn) [Compound I-17, 2-amino-9-[(2S,5R,7R,8R,12aR,14R,15aS,16R)-10,16-dihydroxy-2,10-dioxido-14-(pyrimidin-4-yloxy)-2-sulfanyldecahydro-5,8-methanocyclopenta[1][1,3,6,9,11,2,10]pentaoxadiphosphacyclotetradecin-7-yl]-1,9-dihydro-6H-purin-6-one] the EC50 ([1]; Homo sapiens, THP1-Dual, 20 h) was 1000 to 10000 nM and the IC50 [2] was < 1000 nM.
With `Nc1nc2c(ncn2[C@@H]2O[C@@H]3COP(=O)(S)O[C@H]4C[C@H](Nc5ccncn5)C[C@@H]4COP(=O)(O)O[C@@H]2[C@@H]3O)c(=O)[nH]1` (stereo partly drawn) [Compound I-18, 2-amino-9-[(2S,5R,7R,8R,12aR,14R,15aS,16R)-10,16-dihydroxy-2,10-dioxido-14-(pyrimidin-4-ylamino)-2-sulfanyldecahydro-5,8-methanocyclopenta[1][1,3,6,9,11,2,10]pentaoxadiphosphacyclotetradecin-7-yl]-1,9-dihydro-6H-purin-6-one] the EC50 ([1]; Homo sapiens, THP1-Dual, 20 h) was 1000 to 10000 nM and the IC50 [2] was < 1000 nM.
With `Nc1nc2c(ncn2[C@@H]2O[C@@H]3COP(=O)(S)O[C@@H]4[C@@H](COP(=O)(O)O[C@@H]2[C@@H]3F)C[C@@H](Nc2ccncn2)[C@@H]4F)c(=O)[nH]1` (stereo partly drawn) [Compound I-21, 2-amino-9-[(2S,5R,7R,8S,12aR,14R,15S,15aR,16R)-15,16-difluoro-10-hydroxy-2,10-dioxido-14-(pyrimidin-4-ylamino)-2-sulfanyldecahydro-5,8-methanocyclopenta[1][1,3,6,9,11,2,10]pentaoxadiphosphacyclotetradecin-7-yl]-1,9-dihydro-6H-purin-6-one] the EC50 ([1]; Homo sapiens, THP1-Dual, 20 h) was 1000 to 10000 nM and the IC50 [2] was < 1000 nM.
For `Nc1nc2c(ncn2[C@@H]2O[C@@H]3COP(=O)(O)O[C@@H]4[C@@H](COP(=O)(S)O[C@@H]2[C@@H]3F)C[C@@H](Nc2ccncn2)[C@@H]4F)c(=O)[nH]1` (stereo partly drawn) [Compound I-24a, 2-amino-9-[(5R,7R,8S,10S,12aR,14R,15S,15aR,16R)-15,16-difluoro-2-hydroxy-2,10-dioxido-14-(pyrimidin-4-ylamino)-10-sulfanyldecahydro-5,8-methanocyclopenta[1][1,3,6,9,11,2,10]pentaoxadiphosphacyclotetradecin-7-yl]-1,9-dihydro-6H-purin-6-one], the EC50 ([1]; Homo sapiens, THP1-Dual, 20 h) was 1000 to 10000 nM and the IC50 [2] was < 1000 nM.
For `Nc1nc2c(ncn2[C@@H]2O[C@@H]3COP(=O)(O)O[C@H]4C[C@H](Nc5ncncn5)C[C@@H]4COP(=O)(O)O[C@@H]2[C@@H]3O)c(=O)[nH]1` [Compound I-27, 2-amino-9-[(5R,7R,8R,12aR,14R,15aS,16R)-2,10,16-trihydroxy-2,10-dioxido-14-(1,3,5-triazin-2-ylamino)decahydro-5,8-methanocyclopenta[1][1,3,6,9,11,2,10]pentaoxadiphosphacyclotetradecin-7-yl]-1,9-dihydro-6H-purin-6-one], the EC50 ([1]; Homo sapiens, THP1-Dual, 20 h) was 10000 to 25000 nM and the IC50 [2] was < 1000 nM.
With `Nc1nc2c(ncn2[C@@H]2O[C@@H]3COP(=O)(S)O[C@H]4C[C@H](Nc5ncncc5F)C[C@@H]4COP(=O)(S)O[C@@H]2[C@@H]3O)c(=O)[nH]1` (stereo partly drawn) [Compound I-34a, 2-amino-9-{(2S,5R,7R,8R,10S,12aR,14R,15aS,16R)-14-[(5-fluoropyrimidin-4-yl)amino]-16-hydroxy-2,10-dioxido-2,10-disulfanyldecahydro-5,8-methanocyclopenta[1][1,3,6,9,11,2,10]pentaoxadiphosphacyclotetradecin-7-yl}-1,9-dihydro-6H-purin-6-one] the EC50 ([1]; Homo sapiens, THP1-Dual, 20 h) was < 1000 nM and the IC50 [2] was < 1000 nM.
`Nc1nc2c(ncn2[C@@H]2O[C@@H]3COP(=O)(S)O[C@H]4C[C@H](Nc5ncncc5F)C[C@@H]4COP(=O)(S)O[C@@H]2[C@@H]3O)c(=O)[nH]1` (stereo partly drawn) [Compound I-34b, 2-amino-9-{(2S,5R,7R,8R,10S,12aR,14R,15aS,16R)-14-[(5-fluoropyrimidin-4-yl)amino]-16-hydroxy-2,10-dioxido-2,10-disulfanyldecahydro-5,8-methanocyclopenta [1][1,3,6,9,11,2,10]pentaoxadiphosphacyclotetradecin-7-yl}-1,9-dihydro-6H-purin-6-one] was tested, and the EC50 [1] was 1000 to 10000 nM and the IC50 [2] was < 1000 nM.
In the case of `Nc1nc2c(ncn2[C@@H]2O[C@@H]3COP(=O)(S)O[C@@H]4[C@@H](COP(=O)(S)O[C@@H]2[C@@H]3F)C[C@@H](Nc2ccncn2)[C@@H]4F)c(=O)[nH]1` (stereo partly drawn) [Compound I-38a, 2-amino-9-[(2S,5R,7R,8S,10S,12aR,14R,15S,15aR,16R)-15,16-difluoro-2,10-dioxido-14-(pyrimidin-4-ylamino)-2,10-disulfanyldecahydro-5,8-methanocyclopenta[1][1,3,6,9,11,2,10]pentaoxadiphosphacyclotetradecin-7-yl]-1,9-dihydro-6H-purin-6-one], the EC50 ([1]; Homo sapiens, THP1-Dual, 20 h) is reported as 1000 to 10000 nM and the IC50 [2] is reported as < 1000 nM.
`Nc1nc2c(ncn2[C@@H]2O[C@@H]3COP(=O)(O)O[C@@H]4[C@@H](COP(=O)(O)O[C@@H]2[C@@H]3O)C[C@@H](Nc2ncncn2)[C@@H]4F)c(=O)[nH]1` [Compound I-40, 2-amino-9-[(5R,7R,8R,12aR,14R,15S,15aR,16R)-15-fluoro-2,10,16-trihydroxy-2,10-dioxido-14-(1,3,5-triazin-2-ylamino)decahydro-5,8-methanocyclopenta[1][1,3,6,9,11,2,10]pentaoxadiphosphacyclotetradecin-7-yl]-1,9-dihydro-6H-purin-6-one] was tested, and the EC50 ([1]; Homo sapiens, THP1-Dual, 20 h) was 10000 to 25000 nM and the IC50 [2] was < 1000 nM.
In the case of `Nc1nc2c(ncn2[C@@H]2O[C@@H]3COP(=O)(O)O[C@@H]4[C@@H](COP(=O)(O)O[C@@H]2[C@@H]3O)C[C@@H](Nc2ccncn2)[C@@H]4F)c(=O)[nH]1` [Compound I-46, 2-amino-9-[(5R,7R,8R,12aR,14R,15S,15aR,16R)-15-fluoro-2,10,16-trihydroxy-2,10-dioxido-14-(pyrimidin-4-ylamino)decahydro-5,8-methanocyclopenta[1][1,3,6,9,11,2,10]pentaoxadiphosphacyclotetradecin-7-yl]-1,9-dihydro-6H-purin-6-one], the EC50 ([1]; Homo sapiens, THP1-Dual, 20 h) is reported as 10000 to 25000 nM and the IC50 [2] is reported as < 1000 nM.
